This series in a line: Equilibrium solubility of crystalline active in digestion medium / digested placebo LMP formulation. As to conditions: 37 °C, thermodynamic from solid. Type of series: physicochemical. As for the experimental part: In both cases, the majority of the active was solubilized in a lipid phase that phase-separated on centrifugation of the samples and most likely consisting of larger lipophilic colloids including multi-lamellar vesicles. Active drug in the aqueous phase (consisting of BS/PL mixed-micelles, lipid-enriched BS/PL mixed micelles and small vesicles) is considered the most readily available form for absorption.
In vitro digestion tests were performed as follows: 1 g of the active-containing formulation was dispersed in 40 mL fasted intestinal medium (2 mM Tris-maleate, 1.4 mM CaCl2.2H2O, and 150 mM NaCl, 3 mM sodium taurodeoxycholate and 0.75 mM phosphatidylcholine, 37° C.) using a pH-stat titrator as described by the LFCS Consortium (Williams, H D. et al., J. Pharm. Sci. 101 (2012), p. 3360-3380). […] Active concentration in the aqueous phase was measured by HPLC. […] Also thermodynamic solubility of the active was evaluated in digested placebo formulations for determining solubility in digested lipidic colloidal phases.

Structures are written as SMILES. Read-outs that look alike come from different tables or passages of the source.

In the case of `CC(=O)O[C@H]1CC[C@@]2(C)C(=CC[C@@H]3[C@@H]2CC[C@]2(C)C(c4cccnc4)=CC[C@@H]32)C1` [Abiraterone acetate], the solubility thermodynamic reads like this: (pH 6.5, aqueous with cosolvent or surfactant or cyclodextrin, digested placebo LMP formulation, read-out: Equilibrium solubility of crystalline active in digested LMP formulations) 121 µg/mL; (pH 6.5, fassif, same fasted intestinal medium, without digested lipid formulation, read-out: Equilibrium solubility of the crystalline active in digestion medium) 27 µg/mL.

The values are drawn from US10722527B2, “Abiraterone acetate lipid formulations” (Capsugel Belgium NV, priority 2015, dated 2020).
